Results from patent US8575201B2 (Boehringer Ingelheim International GmbH, priority 2010, dated 2013).

Legend:
[1] = test system: synthesis of LTB4 in human whole blood; test: Human whole blood LTB4 production inhibition assay; format: cell-based; settings: calcimycin stimulated, read-out: hWB LTB4 IC50
In short: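 LTB4 in plasma was quantified by HTRF immunoassay. Before that, compound-treated heparinized whole blood (15 min, 37 °C) received 20 μM final calcimycin for a further 30 min at 37 °C, followed by centrifugation at 1500×g.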

[2] = biological target: recombinant human FLAP protein (Homo sapiens (Human), UniProt P20292); test: FLAP binding assay (Scintillation Proximity Assay, displacement of [125I]L-691,831); settings: read-out: FLAP SPA IC50
recombinant human FLAP protein, sequence (P20292 whole entry): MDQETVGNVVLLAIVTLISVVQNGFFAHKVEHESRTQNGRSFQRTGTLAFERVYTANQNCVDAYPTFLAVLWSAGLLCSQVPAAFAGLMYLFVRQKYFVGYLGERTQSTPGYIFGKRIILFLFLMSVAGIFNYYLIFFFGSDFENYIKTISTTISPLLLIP
In short: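 Scintillation proximity displacement of an iodinated (125I) FLAP inhibitor by test compounds, using 100,000×g membrane fraction from lysed cells. Final beads 200 μg/well and protein 5 μg/well; plates shaken 2 h before reading.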

IC50 [1] | IC50 [2] | Structure (SMILES)
790 nM | 110 nM | Cn1cnnc1-c1nc(C2(c3ccc(-c4cnc(N)nc4)nc3)CCC2)no1 [Example 37, 5-(5-{1-[5-(4-methyl-4H-1,2,4-triazol-3-yl)-1,2,4-oxadiazol-3-yl]cyclobutyl}pyridin-2-yl)pyrimidin-2-amine]
72 nM | 2.6 nM | Nc1ncc(-c2ccc(C3(c4noc(-c5ccc(N6CCNCC6)cc5)n4)CCC3)cn2)cn1 [Example 62, 5-[5-(1-{5-[4-(piperazin-1-yl)phenyl]-1,2,4-oxadiazol-3-yl}cyclobutyl)pyridin-2-yl]pyrimidin-2-amine]
2200 nM | 130 nM | Nc1ncc(-c2ccc(C3(c4noc(-c5ccncn5)n4)CCC3)cn2)cn1 [Example 92, 5-(5-{1-[5-(pyrimidin-4-yl)-1,2,4-oxadiazol-3-yl]cyclobutyl}pyridin-2-yl)pyrimidin-2-amine]
74 nM | 39 nM | Cn1cc(-c2nc(C3(c4ccc(-c5cnc(N)cn5)nc4)CCC3)no2)cn1 [Example 174, 5-(5-{1-[5-(1-Methyl-1H-pyrazol-4-yl)-[1,2,4]oxadiazol-3-yl]-cyclobutyl}-pyridin-2-yl)-pyrazin-2-ylamine]
160 nM | 5.5 nM | Cc1cc(-c2nc(C3(c4ccc(-c5cnc(N)nc5)nc4)CCC3)no2)[nH]n1 [Example 80, 5-(5-{1-[5-(3-methyl-1H-pyrazol-5-yl)-1,2,4-oxadiazol-3-yl]cyclobutyl}pyridin-2-yl)pyrimidin-2-amine]
790 nM | 81 nM | Cn1cc(-c2nc(C3(c4ccc(-c5cnc(N)nc5)cn4)CCC3)no2)cn1 [Example 134, 5-(6-{1-[5-(1-methyl-1H-pyrazol-4-yl)-1,2,4-oxadiazol-3-yl]cyclobutyl}pyridin-3-yl)pyrimidin-2-amine]
640 nM | 40 nM | Cn1ccc(-c2nc(C3(c4ccc(-c5cnc(N)nc5)nc4)CCC3)no2)n1 [Example 127, 5-(5-{1-[5-(1-methyl-1H-pyrazol-3-yl)-1,2,4-oxadiazol-3-yl]cyclobutyl}pyridin-2-yl)pyrimidin-2-amine]
170 nM | 7.6 nM | Nc1ncc(-c2ccc(C3(c4noc(-c5cnn(CC(F)(F)F)c5)n4)CCC3)cn2)cn1 [Example 69, 5-[5-(1-{5-[1-(2,2,2-trifluoroethyl)-1H-pyrazol-4-yl]-1,2,4-oxadiazol-3-yl}cyclobutyl)pyridin-2-yl]pyrimidin-2-amine]
310 nM | 2.4 nM | CN(C)c1ccc(-c2nc(C3(c4ccc(-c5cnc(N)nc5)nc4)CCC3)no2)cn1 [Example 110, 5-[5-(1-{5-[6-(dimethylamino)pyridin-3-yl]-1,2,4-oxadiazol-3-yl}cyclobutyl)pyridin-2-yl]pyrimidin-2-amine]
120 nM | 3 nM | COCCN(C)c1ccc(-c2nc(C3(c4ccc(-c5cnc(N)nc5)nc4)CCC3)no2)cn1 [Example 117, 5-{5-[1-(5-{6-[(2-methoxyethyl)(methyl)amino]pyridin-3-yl}-1,2,4-oxadiazol-3-yl)cyclobutyl]pyridin-2-yl}pyrimidin-2-amine]
320 nM | 35 nM | CC(CO)n1cc(-c2nc(C3(c4ccc(-c5cnc(N)nc5)nc4)CCC3)no2)cn1 (stereo not drawn) [Example 29, 2-[4-(3-{1-[6-(2-aminopyrimidin-5-yl)pyridin-3-yl]cyclobutyl}-1,2,4-oxadiazol-5-yl)-1H-pyrazol-1-yl]propan-1-ol]
820 nM | 24 nM | Cc1cc(-c2nc(C3(c4ccc(-c5cnc(N)nc5)nc4)CCC3)no2)ccn1 [Example 101, 5-(5-{1-[5-(2-methylpyridin-4-yl)-1,2,4-oxadiazol-3-yl]cyclobutyl}pyridin-2-yl)pyrimidin-2-amine]
650 nM | 30 nM | Nc1ncc(-c2ccc(C3(c4noc(-c5cc(N)[nH]n5)n4)CCC3)cn2)cn1 [Example 10, 5-(5-{1-[5-(5-amino-1H-pyrazol-3-yl)-1,2,4-oxadiazol-3-yl]cyclobutyl}pyridin-2-yl)pyrimidin-2-amine]
2600 nM | 2.6 nM | Nc1ncc(-c2ccc(C3(c4noc(-c5ccc(N6CCN(CCC(=O)O)CC6)nc5)n4)CCC3)cn2)cn1 [Example 53, 3-{4-[5-(3-{1-[6-(2-aminopyrimidin-5-yl)pyridin-3-yl]cyclobutyl}-1,2,4-oxadiazol-5-yl)pyridin-2-yl]piperazin-1-yl}propanoic acid]
540 nM | 95 nM | CN(C(=O)Cn1cc(-c2nc(C3(c4ccc(-c5cnc(N)nc5)nc4)CCC3)no2)cn1)C1CC1 [Example 160, 2-[4-(3-{1-[6-(2-amino-pyrimidin-5-yl)-pyridin-3-yl]-cyclobutyl}-[1,2,4]oxadiazol-5-yl)-pyrazol-1-yl]-N-cyclopropyl-N-methyl-acetamide]
100 nM | 2.4 nM | CNc1ccc(-c2nc(C3(c4ccc(-c5cnc(N)nc5)nc4)CCC3)no2)cn1 [Example 113, 5-[5-(1-{5-[6-(methylamino)pyridin-3-yl]-1,2,4-oxadiazol-3-yl}cyclobutyl)pyridin-2-yl]pyrimidin-2-amine]
280 nM | 4.1 nM | Nc1ncc(-c2ccc(C3(c4noc(-c5cccnc5Cl)n4)CCC3)cn2)cn1 [Example 84, 5-(5-{1-[5-(2-chloropyridin-3-yl)-1,2,4-oxadiazol-3-yl]cyclobutyl}pyridin-2-yl)pyrimidin-2-amine]
190 nM | 34 nM | CC(C)(O)Cn1cc(-c2nc(C3(c4ccc(-c5ccc(N)nc5)nc4)CCC3)no2)cn1 [Example 153, 1-(4-{3-[1-(6′-amino-[2,3′]bipyridinyl-5-yl)-cyclobutyl]-[1,2,4]oxadiazol-5-yl}-pyrazol-1-yl)-2-methyl-propan-2-ol]
400 nM | 33 nM | CC(C)(CO)n1cc(-c2nc(C3(c4ccc(-c5cnc(N)nc5)nc4)CCC3)no2)cn1 [Example 30, 2-[4-(3-{1-[6-(2-aminopyrimidin-5-yl)pyridin-3-yl]cyclobutyl}-1,2,4-oxadiazol-5-yl)-1H-pyrazol-1-yl]-2-methylpropan-1-ol]
140 nM | 4.3 nM | CN(CCO)c1ccc(-c2nc(C3(c4ccc(-c5cnc(N)nc5)nc4)CCC3)no2)cn1 [Example 116, 2-{[5-(3-{1-[6-(2-aminopyrimidin-5-yl)pyridin-3-yl]cyclobutyl}-1,2,4-oxadiazol-5-yl)pyridin-2-yl](methyl)amino}ethanol]
340 nM | 65 nM | CC(C)(Cn1cc(-c2nc(C3(c4ccc(-c5cnc(N)nc5)nc4)CCC3)no2)cn1)C(N)=O [Example 147, 3-[4-(3-{1-[6-(2-amino-pyrimidin-5-yl)-pyridin-3-yl]-cyclobutyl}-[1,2,4]oxadiazol-5-yl)-pyrazol-1-yl]-2,2-dimethyl-propionamide]
200 nM | 25 nM | CC(C)(C#N)Cn1cc(-c2nc(C3(c4ccc(-c5cnc(N)nc5)nc4)CCC3)no2)cn1 [Example 148, 3-[4-(3-{1-[6-(2-amino-pyrimidin-5-yl)-pyridin-3-yl]-cyclobutyl}-[1,2,4]oxadiazol-5-yl)-pyrazol-1-yl]-2,2-dimethyl-propionitrile]
180 nM | 2.6 nM | CS(=O)(=O)C1CCN(c2ccc(-c3nc(C4(c5ccc(-c6cnc(N)nc6)nc5)CCC4)no3)cn2)C1 (stereo not drawn) [Example 52, 5-{5-[1-(5-{6-[3-(methylsulfonyl)pyrrolidin-1-yl]pyridin-3-yl}-1,2,4-oxadiazol-3-yl)cyclobutyl]pyridin-2-yl}pyrimidin-2-amine]
250 nM | 16 nM | CN(C)CCn1cc(-c2nc(C3(c4ccc(-c5cnc(N)nc5)nc4)CCC3)no2)cn1 [Example 142, 5-{5-[1-(5-{1-[2-(dimethylamino)ethyl]-1H-pyrazol-4-yl}-1,2,4-oxadiazol-3-yl)cyclobutyl]pyridin-2-yl}pyrimidin-2-amine]
> 5000 nM | 43 nM | Nc1ncc(-c2ccc(C3(c4noc(-c5ccc(N6CCC[C@H]6C(=O)O)nc5)n4)CCC3)cn2)cn1 [Example 35, 1-[5-(3-{1-[6-(2-aminopyrimidin-5-yl)pyridin-3-yl]cyclobutyl}-1,2,4-oxadiazol-5-yl)pyridin-2-yl]-L-proline]
490 nM | 51 nM | Cn1cccc(-c2nc(C3(c4ccc(-c5cnc(N)nc5)nc4)CCC3)no2)c1=O [Example 77, 3-(3-{1-[6-(2-aminopyrimidin-5-yl)pyridin-3-yl]cyclobutyl}-1,2,4-oxadiazol-5-yl)-1-methylpyridin-2(1H)-one]
1100 nM | 250 nM | COC1CCN(C(=O)Cn2cc(-c3nc(C4(c5ccc(-c6cnc(N)nc6)nc5)CCC4)no3)cn2)C1 (stereo not drawn) [Example 161, 2-[4-(3-{1-[6-(2-amino-pyrimidin-5-yl)-pyridin-3-yl]-cyclobutyl}-[1,2,4]oxadiazol-5-yl)-pyrazol-1-yl]-1-(3-methoxy-pyrrolidin-1-yl)-ethanone]
730 nM | 110 nM | Cn1cc(-c2nc(C3(c4ccc(-c5cnc(N)nc5)nc4)CCC3)no2)ccc1=O [Example 26, 5-(3-{1-[6-(2-aminopyrimidin-5-yl)pyridin-3-yl]cyclobutyl}-1,2,4-oxadiazol-5-yl)-1-methylpyridin-2(1H)-one]
610 nM | 83 nM | CN(C)C(=O)Cn1cc(-c2nc(C3(c4ccc(-c5cnc(N)nc5)nc4)CCC3)no2)cn1 [Example 59, 2-[4-(3-{1-[6-(2-amino-pyrimidin-5-yl)-pyridin-3-yl]-cyclobutyl}-1,2,4-oxadiazol-5-yl)-pyrazol-1-yl]-N,N-dimethyl-acetamide]

Structure (SMILES) | IC50 [1] | IC50 [2]
Cc1n[nH]cc1-c1nc(C2(c3ccc(-c4cnc(N)nc4)nc3)CCC2)no1 [Example 78, 5-(5-{1-[5-(3-methyl-1H-pyrazol-4-yl)-1,2,4-oxadiazol-3-yl]cyclobutyl}pyridin-2-yl)pyrimidin-2-amine] | 220 nM | 4.7 nM
